Data on 5 molecules can be found in patent US20110152501A1, “Activatable Imaging Probes” (THE GENERAL HOSPITAL CORPORATION, priority 2001, published 2011).

Non-standard residues stand in square brackets, D forms with d. Primed or numbered codes have the meaning given here. No end group written: not given here. *: point of attachment. FITC = O=C1OC2(c3ccc(O)cc3Oc3cc(O)ccc32)c2ccc(NC(=S)*)cc21; Pip′ = not defined here

What all share (assay type): biochemical
Assay [1] has as its target T1, MMP-2 (Homo sapiens, UniProt P08253).
T1 construct: purchased Boehringer-Mannheim, Ind
T1 sequence (P08253 110-660): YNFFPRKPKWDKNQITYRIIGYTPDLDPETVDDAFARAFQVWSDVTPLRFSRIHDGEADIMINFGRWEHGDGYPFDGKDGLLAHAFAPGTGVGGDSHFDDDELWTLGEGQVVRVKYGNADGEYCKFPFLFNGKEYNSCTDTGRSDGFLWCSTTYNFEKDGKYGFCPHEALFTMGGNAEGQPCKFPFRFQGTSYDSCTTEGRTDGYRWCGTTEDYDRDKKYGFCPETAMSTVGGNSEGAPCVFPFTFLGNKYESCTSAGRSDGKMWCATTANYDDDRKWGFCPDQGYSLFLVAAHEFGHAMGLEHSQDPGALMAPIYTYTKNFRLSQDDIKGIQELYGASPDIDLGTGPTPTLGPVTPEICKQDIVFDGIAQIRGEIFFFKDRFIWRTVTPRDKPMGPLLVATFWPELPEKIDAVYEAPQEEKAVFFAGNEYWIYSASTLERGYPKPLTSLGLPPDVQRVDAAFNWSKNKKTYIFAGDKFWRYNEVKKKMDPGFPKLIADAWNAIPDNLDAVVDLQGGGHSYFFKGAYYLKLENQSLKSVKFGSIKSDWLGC
Kind of assay: Inhibition of MMP-2 mediated probe activation by inhibitors. Conditions: 1 mM.
Experimental: Using 5 U of MMP-2 and 19 pmol of imaging probe, we performed a dose response study of mediated MMP inhibition up to 0.1 mM of inhibitor.
To determine the range of enzyme activation, a constant amount of imaging probe (26.6 pmol) was incubated with variable amounts of activated MMP-2 and fluorescence was determined after 24 hours. Inhibition experiments were performed by incubating 1 U of purified, activated MMP-2 with 19 pmol NIRF probe (220 pmol Cy 5.5) in the presence of different inhibitors, 1.10 phenanthroline (1 mM, Aldrich, Milwaukee, Wis.), a Zinc chelator, or a direct MMP-2 inhibitor.

A further assay has as its target T2, thrombin (Homo sapiens, UniProt P00734).
T2 construct: tested with purified thrombin in PBS buffer
Nature of the assay: Enzymatic assay of peptide cleavage by thrombin (HPLC). The text has this: In contrast, there was no cleavage when the serine at P1′ position was replaced by a proline residue.

Assay [2] deals with T1, MMP-2. Kind of assay: HPLC analysis of peptide substrates after incubation with MMP-2. The method, then:
The synthesized probes contain a preferential MMP-2 peptide substrate. Two different peptide substrates were used in this study, an MMP-2 cleavable peptide ([…](FITC)C-NH2 (SEQ ID NO:10) (substrate sites are italicized)) and a scrambled control peptide. […] Although the latter control probe has a GVR leader sequence, it is too short to be recognized by MMP-2.
Characterization of probe. A number of experiments were conducted to characterize the peptide substrate and imaging probes. Initially we performed HPLC analysis of peptide and control substrates prior to and after incubation with 1 U of MMP-2. One unit is the activity that hydrolyzes 1 μg of type IV collagen within 1 hour using a commercially available assay (gelatinase 72 kD, Boehringer Mannheim, Indianapolis, Ind.). Reverse phase HPLC (Brownlee, Spheri-5, ODS, 30×4.6 mm), using 0.1% TFA and acetonitrile as elution buffers was performed (Rainin Instruments, Woburn, Mass.). […] The control probe contained the scrambled peptide. To determine the range of enzyme activation, a constant amount of imaging probe (26.6 pmol) was incubated with variable amounts of activated MMP-2 and fluorescence was determined after 24 hours. […]

The target in a further assay is T3, purified thrombin (Homo sapiens, UniProt P00734).
T3 construct: tested with purified thrombin in PBS buffer
Kind of assay: Probe activation with purified thrombin in PBS buffer, NIRF signal over time. Particulars: thrombin added to solutions containing thrombin probe and hirudin, compared to hirudin-free solutions. The method, then:
The prepared probes were first tested with purified thrombin in PBS buffer as the NIRF signal was recorded over time. […] Following addition of thrombin, NIRF signal increased from 150 AU to 4100 AU within 20 minutes (27 fold increase). […] There was a clear dose response when the probe was incubated with different amounts of thrombin.

In the case of `c1cnc2c(c1)ccc1cccnc12` [1,10 phenanthroline], the “blocking of fluorescence activation” value on MMP-2 [1] is listed as “completely blocked”.

“Gly-D-Phe-Pip-Arg-Pro-Gly-Gly-Gly-Gly-Lys(FITC)-Cys-NH2”: on thrombin (two hours following incubation with thrombin), the stability against thrombin result is recorded as “remained intact”.

For “Gly-D-Phe-Pip-Arg-Ser-Gly-Gly-Gly-Gly-Lys(FITC)-Cys-NH2 (G[dF][Pip′]RSGGGGK(FITC)C-NH2) [C-terminal extended peptide]”, in the assay with thrombin (HPLC), the cleavage by thrombin entry was “cleaved into two major products”.

Take “Gly-Pro-Leu-Gly-Val-Arg-Gly-Lys(FITC)-Cys-NH2 (GPLGVRGK(FITC)C-NH2; N-terminus assumed; SMILES CC(C)C[C@H](NC(=O)[C@@H]1CCCN1C(=O)CN)C(=O)NCC(=O)N[C@H](C(=O)N[C@@H](CCCNC(=N)N)C(=O)NCC(=O)N[C@@H](CCCCNC(=S)Nc1ccc2c(c1)C(=O)OC21c2ccc(O)cc2Oc2cc(O)ccc21)C(=O)N[C@@H](CS)C(N)=O)C(C)C)”: the “cleavage by MMP-2” value with MMP-2 [2] is reported as “cleavage of the former”.

For hirudin, the “effect on thrombin activation of the thrombin probe” value at purified thrombin is given as “significantly less NIRF signal”.
